Data published in patent publication US10138254B2, “Bicyclic compounds as pest control agents” (BAYER CROPSCIENCE AKTIENGESELLSCHAFT, priority 2014, dated 2018).
Like-named read-outs stand apart in the source and are kept apart here.

Key:
[1] = log P by HPLC on reversed-phase (C18) columns, OECD Guideline 117; format: physicochemical; settings: for chromatographic logP: reversed-phase (C18) HPLC column
Procedure: The log P values were determined in accordance with OECD Guideline 117 (EC Directive 92/69/EEC) by HPLC (high-performance liquid chromatography) using reversed-phase (RP) columns (C18), by the following methods: [a] The LC-MS determination in the acidic range is carried out at pH 2.7 with 0.1% aqueous formic acid and acetonitrile (contains 0.1% formic acid) as eluents; linear gradient from 10% acetonitrile to 95% acetonitrile. [b] LC-MS determination in the neutral range is effected at pH 7.8 with 0.001 molar aqueous ammonium hydrogencarbonate solution and acetonitrile as eluents; linear gradient from 10% acetonitrile to 95% acetonitrile. Calibration is carried out using unbranched alkan-2-ones (having 3 to 16 carbon atoms) with known log P values (log P values determined on the basis of the retention times by linear interpolation between two successive alkanones).

[2] = system: green peach aphid (Myzus persicae); assay: Myzus persicae spray test (Chinese cabbage leaf discs); format: in vivo; settings: application rate 500 g/ha, after 6 days, 100% = all aphids killed; for pest or weed control at 500 g/ha: Myzus persicae, foliar, 144 h, read-out: efficacy
Procedure: Myzus persicae—Spray Test Solvent: 78 parts by weight of acetone • • 1.5 parts by weight of dimethylformamide Emulsifier: alkylaryl polyglycol ether To produce a suitable active ingredient formulation, 1 part by weight of active ingredient is dissolved with the specified parts by weight of solvent and made up with water containing an emulsifier concentration of 1000 ppm until the desired concentration is attained. To produce further test concentrations, the formulation is diluted with emulsifier-containing water. Discs of Chinese cabbage leaves (Brassica pekinensis) infested by all stages of the green peach aphid (Myzus persicae) are sprayed with an active ingredient formulation of the desired concentration. After 6 days, the efficacy in % is determined. 100% means that all the aphids have been killed; 0% means that no aphids have been killed.

[3] = acidic range, pH 2.7, 0.1% aqueous formic acid and acetonitrile
[4] = neutral range, pH 7.8, 0.001 molar aqueous ammonium hydrogencarbonate and acetonitrile
[5] = acidic range, pH 2.7, 0.1% aqueous formic acid and acetonitrile, read-out: LogP[a]
[6] = neutral range, pH 7.8, 0.001 molar aqueous ammonium hydrogencarbonate and acetonitrile, read-out: logP[b]

LogP[a] [1, 3]	logP[b] [1, 4]	chromatographic logP [1, 5]	Compound	further results
2.47	2.56	–	c1ccc(-c2cnc3nc(-c4cccnc4)sc3c2)cc1 [Example 1]	–
–	–	2.76	Cc1ccccc1-c1cnc2nc(-c3cccnc3)sc2c1 [Example 2, 6-(2-Methylphenyl)-2-(pyridin-3-yl)[1,3]thiazolo[4,5-b]pyridine]	chromatographic logP [1, 6]: 2.8; pest or weed control at 500 g/ha [2]: 100%
2.91	2.95	–	Cc1cccc(-c2cnc3nc(-c4cccnc4)sc3c2)c1 [Example 3]	–
2.91	2.96	–	Cc1ccc(-c2cnc3nc(-c4cccnc4)sc3c2)cc1 [Example 4]	efficacy [2]: 100%
–	–	2.98	Clc1cccc(-c2cnc3nc(-c4cccnc4)sc3c2)c1 [Example 7, 6-(3-Chlorophenyl)-2-(pyridin-3-yl)[1,3]thiazolo[4,5-b]pyridine]	chromatographic logP [1, 6]: 3.01; pest or weed control at 500 g/ha [2]: 100%
2.98	3.03	–	Clc1ccc(-c2cnc3nc(-c4cccnc4)sc3c2)cc1 [Example 8]	–
–	3.36	–	CCSc1cccc(-c2cnc3nc(-c4cccnc4)sc3c2)c1 [Example 10]	–

More lines, now with the values behind:

Compound	LogP[a] [1, 3]	logP[b] [1, 4]	chromatographic logP [1, 5]	further results
Fc1ccccc1-c1cnc2nc(-c3cccnc3)sc2c1 [Example 5]	2.51	2.54	–	–
Clc1ccccc1-c1cnc2nc(-c3cccnc3)sc2c1 [Example 6]	2.77	2.78	–	efficacy [2]: 100%
CCSc1ccc(-c2cnc3nc(-c4cccnc4)sc3c2)cc1 [Example 11]	3.34	3.37	–	–
CC[S+]([O-])c1ccc(-c2cnc3nc(-c4cccnc4)sc3c2)cc1 (centres unmarked) [Example 12]	1.58	1.86	–	–
CCSc1ccccc1-c1cnc2nc(-c3cccnc3)sc2c1 [Example 14, 6-[2-(Ethylsulphanyl)phenyl]-2-(pyridin-3-yl)[1,3]thiazolo[4,5-b]pyridine]	–	–	3.12	chromatographic logP [1, 6]: 3.13
CC[S+]([O-])c1ccccc1-c1cnc2nc(-c3cccnc3)sc2c1 (centres unmarked) [Example 15, 6-[2-(Ethylsulphinyl)phenyl]-2-(pyridin-3-yl)[1,3]thiazolo[4,5-b]pyridine]	–	–	1.58	chromatographic logP [1, 6]: 1.59
c1ccc(Nc2cnc3nc(-c4cccnc4)sc3c2)cc1 [Example 24]	2.25	2.27	–	–
FC(F)(F)c1ccn(-c2cnc3nc(-c4cccnc4)sc3c2)n1 [Example 27]	–	–	–	chromatographic logP [1, 6]: 2.57
FC(F)(F)c1cnn(-c2cnc3nc(-c4cccnc4)sc3c2)c1 [Example 28]	2.48	2.53	–	–
Cn1cnn(-c2cnc3nc(-c4cccnc4)sc3c2)c1=S [Example 29]	1.00	1.07	–	–
CSCCNC(=O)c1cnc2nc(-c3cccnc3)sc2c1 [Example 52, N-[2-(Methylsulphanyl)ethyl]-2-(pyridin-3-yl)[1,3]thiazolo[4,5-b]pyridine-6-carboxamide]	–	–	1.39	–
CS(=O)(=O)CCNC(=O)c1cnc2nc(-c3cccnc3)sc2c1 [Example 54, N-[2-(Methylsulphonyl)ethyl]-2-(pyridin-3-yl)[1,3]thiazolo[4,5-b]pyridine-6-carboxamide]	–	–	0.84	–
O=C(Nc1cccc(SC(F)(F)F)c1)c1cnc2nc(-c3cncc(F)c3)sc2c1 [Example 57, 2-(5-Fluoropyridin-3-yl)-N-{3-[(trifluoromethyl)sulphanyl]phenyl}[1,3]thiazolo[4,5-b]pyridine-6-carboxamide]	–	–	3.53	–
O=C(Nc1cccc([S+]([O-])C(F)(F)F)c1)c1cnc2nc(-c3cncc(F)c3)sc2c1 (centres unmarked) [Example 58, 2-(5-Fluoropyridin-3-yl)-N-{3-[(trifluoromethyl)sulphinyl]phenyl}[1,3]thiazolo[4,5-b]pyridine-6-carboxamide]	–	–	2.54	–
Brc1cnc2nc(-c3cccnc3)sc2c1 [I-a-1, 6-bromo-2-(pyridin-3-yl)[1,3]thiazolo[4,5-b]pyridine]	–	–	–	chromatographic logP [1, 6]: 1.95
